Measured values published in patent US20250163066A1, “PROTACs of MALT1” (TEGID THERAPEUTICS, INC., priority 2022, published 2025).

Experiments:
[1] = test system: IL-2 MALT1-dependent release in Jurkat cells; assay: cells; type: cell-based; conditions: Homo sapiens; Jurkat cells stimulated with antiCD3/antiCD28 for 24 h; IL-2 ELISA; read-out: EC50, IL-2 MALT1-dependent release inhibition
Procedure: Jurkat cells (ATCC, USA) (100,000 cells/well in a 96 well flat-bottom plate (Greiner, #655061) were cultured in RPMI 1640 supplemented with 10% FBS at 37° C., 5% CO2 in a humidified cell culture incubator for 0.5-1 h. Then 10 μl/well 15× compound (or DMSO) was added in duplicates. Cells were incubated with compound in a humidified cell culture incubator for 0.5-1 h. After the incubation, 10 μl/well of 15× human antiCD3 HIT3a antibody (BioLegend) together with 10 μl/well of 15× human antiCD28 antibody (Invitrogen) were added to stimulate Jurkat cells for 24 h. After 24 h of stimulation, supernatants were collected and IL-2 levels in supernatants were assessed using IL-2 ELISA kit (Vector-Best, Russia).

MALT1 = MALT1 (Homo sapiens (Human), UniProt Q9UDY8); assay: MALT1 enzymatic activity inhibition (fluorescence, Ac-LRSR-AMC substrate); type: biochemical; conditions: recombinant MALT1 1.5 ng/μl, Ac-LRSR-AMC 1 μM
Summary of the method: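 Recombinant human MALT1 (1.5 ng/μl final) preincubated 10 min at rt with compounds in 50 mM HEPES pH 7.2-7.4, 100 mM NaCl, 900 mM sodium citrate, 10 mM DTT; 1 μM Ac-LRSR-AMC then added. AMC fluorescence read at start and after 30 min 37 °C plus 30 min rt; difference gives signal, % inhibition fitted to IC50.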

Chain of MALT1 (Q9UDY8 whole entry): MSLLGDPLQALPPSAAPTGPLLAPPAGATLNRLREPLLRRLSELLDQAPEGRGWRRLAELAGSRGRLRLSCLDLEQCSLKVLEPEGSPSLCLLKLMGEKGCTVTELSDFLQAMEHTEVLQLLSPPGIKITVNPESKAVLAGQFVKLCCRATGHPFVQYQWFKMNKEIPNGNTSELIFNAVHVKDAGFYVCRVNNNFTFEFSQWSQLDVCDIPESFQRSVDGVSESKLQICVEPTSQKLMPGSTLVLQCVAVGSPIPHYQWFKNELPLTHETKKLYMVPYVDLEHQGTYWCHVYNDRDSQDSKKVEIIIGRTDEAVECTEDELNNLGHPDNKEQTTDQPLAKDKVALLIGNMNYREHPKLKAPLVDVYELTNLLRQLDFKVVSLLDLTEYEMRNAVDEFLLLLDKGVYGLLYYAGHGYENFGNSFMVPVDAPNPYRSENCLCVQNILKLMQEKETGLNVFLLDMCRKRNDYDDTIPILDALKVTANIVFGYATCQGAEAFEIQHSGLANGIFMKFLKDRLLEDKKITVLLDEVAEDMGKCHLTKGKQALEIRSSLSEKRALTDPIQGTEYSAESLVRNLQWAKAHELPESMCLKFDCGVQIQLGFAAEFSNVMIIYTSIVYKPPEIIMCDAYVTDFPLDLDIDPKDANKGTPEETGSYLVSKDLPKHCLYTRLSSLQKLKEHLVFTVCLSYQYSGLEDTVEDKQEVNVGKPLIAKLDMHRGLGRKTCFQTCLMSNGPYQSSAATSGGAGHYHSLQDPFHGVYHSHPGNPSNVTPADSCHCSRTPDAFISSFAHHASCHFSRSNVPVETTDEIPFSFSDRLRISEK

SMILES | EC50 [1] [nM] | EC50 (MALT1) [µM]
Cc1cc(NC(=O)Nc2cnc3ccnn3c2C2CCCC2)cnc1-c1noc(CCC(=O)N2CCN(c3ccc4c(c3)CN(C3CCC(=O)NC3=O)C4=O)CC2)n1 (stereo not drawn) [Compound 13, 1-(7-cyclopentylpyrazolo[1,5-a]pyrimidin-6-yl)-3-[6-[5-[3-[4-[2-(2,6-dioxo-3-piperidyl)-1-oxo-isoindolin-5-yl]piperazin-1-yl]-3-oxo-propyl]-1,2,4-oxadiazol-3-yl]-5-methyl-3-pyridyl]urea] | > 5000 | ≤ 0.2
Cc1cc(NC(=O)Nc2cnc3ccnn3c2C2CCCC2)cnc1-c1noc(CCCCC(=O)N2CCN(c3ccc4c(c3)CN(C3CCC(=O)NC3=O)C4=O)CC2)n1 (stereo not drawn) [Compound 14, 1-(7-cyclopentylpyrazolo[1,5-a]pyrimidin-6-yl)-3-[6-[5-[5-[4-[2-(2,6-dioxo-3-piperidyl)-1-oxo-isoindolin-5-yl]piperazin-1-yl]-5-oxo-pentyl]-1,2,4-oxadiazol-3-yl]-5-methyl-3-pyridyl]urea] | 1000 to 5000 | ≤ 0.2
Cc1cc(NC(=O)Nc2cnc3ccnn3c2C2CCCC2)cnc1-c1noc(CCOCCN2CCN(c3ccc4c(c3)CN(C3CCC(=O)NC3=O)C4=O)CC2)n1 (stereo not drawn) [Compound 16, 1-(7-cyclopentylpyrazolo[1,5-a]pyrimidin-6-yl)-3-[6-[5-[2-[2-[4-[2-(2,6-dioxo-3-piperidyl)-1-oxo-isoindolin-5-yl]piperazin-1-yl]ethoxy]ethyl]-1,2,4-oxadiazol-3-yl]-5-methyl-3-pyridyl]urea] | 1000 to 5000 | 0.2 to 0.5
O=C(CCOCCN1CCN(c2ccc3c(c2)CN(C2CCC(=O)NC2=O)C3=O)CC1)NCCOc1ncc(Cl)cc1NC(=O)Nc1cnc2ccnn2c1C1CCCC1 (stereo not drawn) [Compound 37, N-[2-[[5-chloro-3-[(7-cyclopentylpyrazolo[1,5-a]pyrimidin-6-yl)carbamoylamino]-2-pyridyl]oxy]ethyl]-3-[2-[4-[2-(2,6-dioxo-3-piperidyl)-1-oxo-isoindolin-5-yl]piperazin-1-yl]ethoxy]propanamide] | 1000 to 5000 | 0.5 to 1
O=C(CCOCCOCCN1CCN(c2ccc3c(c2)CN(C2CCC(=O)NC2=O)C3=O)CC1)NCCOc1ncc(Cl)cc1NC(=O)Nc1cnc2ccnn2c1C1CCCC1 (stereo not drawn) [Compound 38, N-[2-[[5-chloro-3-[(7-cyclopentylpyrazolo[1,5-a]pyrimidin-6-yl)carbamoylamino]-2-pyridyl]oxy]ethyl]-3-[2-[2-[4-[2-(2,6-dioxo-3-piperidyl)-1-oxo-isoindolin-5-yl]piperazin-1-yl]ethoxy]ethoxy]propanamide] | 1000 to 5000 | 0.2 to 0.5
Cc1cc(NC(=O)Nc2cnc3ccnn3c2C2CCCC2)cnc1N1CCN(c2ccc3c(c2)CN(C2CCC(=O)NC2=O)C3=O)CC1 (stereo not drawn) [Compound 54, 1-(7-cyclopentylpyrazolo[1,5-a]pyrimidin-6-yl)-3-[6-[4-[2-(2,6-dioxo-3-piperidyl)-1-oxo-isoindolin-5-yl]piperazin-1-yl]-5-methyl-3-pyridyl]urea] | > 5000 | 1 to 5
Cc1cc(NC(=O)Nc2cnc3ccnn3c2C2CCCC2)cnc1-c1noc(CCCCCN2CCN(c3cc4c(cc3F)C(=O)N(C3CCC(=O)NC3=O)C4=O)CC2)n1 (stereo not drawn) [Compound 55, 1-(7-cyclopentylpyrazolo[1,5-a]pyrimidin-6-yl)-3-[6-[5-[5-[4-[2-(2,6-dioxo-3-piperidyl)-6-fluoro-1,3-dioxo-isoindolin-5-yl]piperazin-1-yl]pentyl]-1,2,4-oxadiazol-3-yl]-5-methyl-3-pyridyl]urea] | 500 to 1000 | ≤ 0.2
Cc1cc(NC(=O)Nc2cnc3ccnn3c2C2CCCC2)cnc1-c1noc(CCCCN2CCN(c3cc4c(cc3F)C(=O)N(C3CCC(=O)NC3=O)C4=O)CC2)n1 (stereo not drawn) [Compound 57, 1-(7-cyclopentylpyrazolo[1,5-a]pyrimidin-6-yl)-3-[6-[5-[4-[4-[2-(2,6-dioxo-3-piperidyl)-6-fluoro-1,3-dioxo-isoindolin-5-yl]piperazin-1-yl]butyl]-1,2,4-oxadiazol-3-yl]-5-methyl-3-pyridyl]urea] | 1000 to 5000 | ≤ 0.2
O=C1CCC(N2Cc3cc(N4CCN(C(=O)CCCCc5nc(-c6ncc(NC(=O)Nc7cnc8ccnn8c7C7CCCC7)cc6Cl)no5)CC4)ccc3C2=O)C(=O)N1 (stereo not drawn) [Compound 76, 1-[5-chloro-6-[5-[5-[4-[2-(2,6-dioxo-3-piperidyl)-1-oxo-isoindolin-5-yl]piperazin-1-yl]-5-oxo-pentyl]-1,2,4-oxadiazol-3-yl]-3-pyridyl]-3-(7-cyclopentylpyrazolo[1,5-a]pyrimidin-6-yl)urea] | 500 to 1000 | ≤ 0.2

Continued, values first:

EC50 [1] [nM] | EC50 (MALT1) [µM] | SMILES
< 500 | ≤ 0.2 | Cc1cc(NC(=O)Nc2cnc3ccnn3c2C2CCCC2)cnc1-c1noc(CCCCCN2CCN(c3ccc4c(c3)CN(C3CCC(=O)NC3=O)C4=O)CC2)n1 (stereo not drawn) [Compound 17, 1-(7-cyclopentylpyrazolo[1,5-a]pyrimidin-6-yl)-3-[6-[5-[5-[4-[2-(2,6-dioxo-3-piperidyl)-1-oxo-isoindolin-5-yl]piperazin-1-yl]pentyl]-1,2,4-oxadiazol-3-yl]-5-methyl-3-pyridyl]urea]
< 500 | ≤ 0.2 | Cc1cc(NC(=O)Nc2cnc3ccnn3c2C2CCCC2)cnc1-c1noc(CCCN2CCN(c3ccc4c(c3)CN(C3CCC(=O)NC3=O)C4=O)CC2)n1 (stereo not drawn) [Compound 18, 1-(7-cyclopentylpyrazolo[1,5-a]pyrimidin-6-yl)-3-[6-[5-[3-[4-[2-(2,6-dioxo-3-piperidyl)-1-oxo-isoindolin-5-yl]piperazin-1-yl]propyl]-1,2,4-oxadiazol-3-yl]-5-methyl-3-pyridyl]urea]
< 500 | 0.2 to 0.5 | Cc1cc(NC(=O)Nc2cnc3ccnn3c2C2CCCC2)cnc1-c1noc(CCCN2CCN(c3cc4c(cc3F)C(=O)N(C3CCC(=O)NC3=O)C4=O)CC2)n1 (stereo not drawn) [Compound 23, 1-(7-cyclopentylpyrazolo[1,5-a]pyrimidin-6-yl)-3-[6-[5-[3-[4-[2-(2,6-dioxo-3-piperidyl)-6-fluoro-1,3-dioxo-isoindolin-5-yl]piperazin-1-yl]propyl]-1,2,4-oxadiazol-3-yl]-5-methyl-3-pyridyl]urea]
< 500 | ≤ 0.2 | O=C1CCC(N2Cc3cc(N4CCN(Cc5nc(-c6ncc(NC(=O)Nc7cnc8ccnn8c7C7CCCC7)cc6Cl)no5)CC4)ccc3C2=O)C(=O)N1 (stereo not drawn) [Compound 56, 1-[5-chloro-6-[5-[[4-[2-(2,6-dioxo-3-piperidyl)-1-oxo-isoindolin-5-yl]piperazin-1-yl]methyl]-1,2,4-oxadiazol-3-yl]-3-pyridyl]-3-(7-cyclopentylpyrazolo[1,5-a]pyrimidin-6-yl)urea]
< 500 | ≤ 0.2 | O=C1CCC(N2Cc3cc(N4CCN(CCCCCCc5nc(-c6ncc(NC(=O)Nc7cnc8ccnn8c7C7CCCC7)cc6Cl)no5)CC4)ccc3C2=O)C(=O)N1 (stereo not drawn) [Compound 78, 1-[5-chloro-6-[5-[6-[4-[2-(2,6-dioxo-3-piperidyl)-1-oxo-isoindolin-5-yl]piperazin-1-yl]hexyl]-1,2,4-oxadiazol-3-yl]-3-pyridyl]-3-(7-cyclopentylpyrazolo[1,5-a]pyrimidin-6-yl)urea]
< 500 | ≤ 0.2 | O=C1CCC(N2Cc3cc(N4CCN(CCCCCc5nc(-c6ncc(NC(=O)Nc7cnc8ccnn8c7C7CCCC7)cc6Cl)no5)CC4)ccc3C2=O)C(=O)N1 (stereo not drawn) [Compound 79, 1-[5-chloro-6-[5-[5-[4-[2-(2,6-dioxo-3-piperidyl)-1-oxo-isoindolin-5-yl]piperazin-1-yl]pentyl]-1,2,4-oxadiazol-3-yl]-3-pyridyl]-3-(7-cyclopentylpyrazolo[1,5-a]pyrimidin-6-yl)urea]
